Measured values taken from patent publication US8778966B2, “Quinolinone derivatives as PARP and tank inhibitors” (Janssen Pharmaceutica, NV, priority 2007, dated 2014).

Tests used:
HCT116 cells = test: Mitotic arrest assay on HCT116 cells (phospho-histone H3 Ser10); assay type: cell-based, human; conditions: Homo sapiens, HCT-116, HCT116 cells; lowest active dose; read-out: Mitotic arrest HCT116 LAD (converted)
How it was run: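 Read-out is imaging of phospho-histone H3 Ser10 (Alexa Fluor 488) with Hoechst nuclear counting, after 6 h compound exposure at 37 °C, DMSO ≤0.1%. LAD is the lowest dose at which the blank-corrected value over SD exceeds 5; triplicates, low-count wells excluded.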

Human PARP-1 enzyme = target: T1, Human PARP-1 enzyme (Homo sapiens, UniProt P09874); test: In vitro Scintillation Proximity Assay (SPA) for PARP-1 inhibitory activity; assay type: biochemical; conditions: read-out: in vitro SPA assay PARP-1 pIC50 (converted)
T1 construct: purchased Trevigen
How it was run: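 SPA assay: nicked-DNA-activated PARP-1 (0.1–0.2 μg/ml) ADP-ribosylates biotinylated histones (2 μg/ml) using [3H]-NAD+, 20 min at RT in Tris pH 8/DTT/MgCl2, stopped with 2 mM NAD+. Blank-subtracted cpm expressed as % control; IC50 by linear interpolation, reported as pIC50 (10−5 to 3×10−9 M tested).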

T1 sequence (P09874 whole entry): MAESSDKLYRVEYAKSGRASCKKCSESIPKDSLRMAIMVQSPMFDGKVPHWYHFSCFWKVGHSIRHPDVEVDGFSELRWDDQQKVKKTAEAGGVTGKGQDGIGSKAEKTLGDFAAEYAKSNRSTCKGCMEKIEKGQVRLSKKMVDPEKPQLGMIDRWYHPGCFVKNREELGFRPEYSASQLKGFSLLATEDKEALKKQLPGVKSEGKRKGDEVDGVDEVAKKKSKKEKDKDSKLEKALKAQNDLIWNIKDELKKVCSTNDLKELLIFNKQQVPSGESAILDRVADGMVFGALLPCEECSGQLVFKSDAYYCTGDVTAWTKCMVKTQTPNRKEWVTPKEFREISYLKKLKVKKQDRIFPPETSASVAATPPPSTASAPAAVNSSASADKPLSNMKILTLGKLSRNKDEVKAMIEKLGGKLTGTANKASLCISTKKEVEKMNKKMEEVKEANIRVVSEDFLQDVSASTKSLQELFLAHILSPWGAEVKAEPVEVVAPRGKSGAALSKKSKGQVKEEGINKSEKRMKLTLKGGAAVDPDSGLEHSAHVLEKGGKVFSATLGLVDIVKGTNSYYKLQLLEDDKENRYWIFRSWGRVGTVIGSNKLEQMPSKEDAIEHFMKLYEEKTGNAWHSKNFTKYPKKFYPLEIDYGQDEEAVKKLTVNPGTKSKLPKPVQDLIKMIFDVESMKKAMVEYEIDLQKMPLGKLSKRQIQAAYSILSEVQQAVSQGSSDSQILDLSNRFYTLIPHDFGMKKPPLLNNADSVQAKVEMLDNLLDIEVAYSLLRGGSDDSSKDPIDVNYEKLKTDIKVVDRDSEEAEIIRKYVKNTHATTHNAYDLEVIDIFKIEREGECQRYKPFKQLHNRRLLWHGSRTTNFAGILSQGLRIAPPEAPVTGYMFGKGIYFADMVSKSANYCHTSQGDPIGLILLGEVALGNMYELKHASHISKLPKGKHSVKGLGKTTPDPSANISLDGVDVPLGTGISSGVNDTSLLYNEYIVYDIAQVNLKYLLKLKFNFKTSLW

| Structure (SMILES) | minimal effective concentration (HCT116 cells) [µM] | IC50 (Human PARP-1 enzyme) [µM] |
| --- | --- | --- |
| CCc1cc2ccc(C(C)(C#N)Cc3nc4ccccc4n3C)cc2[nH]c1=O (centres unmarked) [Compound 338] | 0.3 | 0.2 |
| CCc1cc2ccc(C(C)(C#N)Cc3cnc(Cl)nc3Cl)cc2[nH]c1=O (centres unmarked) [Compound 306] | 10 | 0.0794 |
| CCc1cc2ccc([C@](C)(C#N)[C@@H](C)c3ccccc3)cc2[nH]c1=O [Compound 199] | 3 | 0.0794 |
| CCc1cc2ccc(C(C)(C#N)Cc3cnc(OC)nc3Cl)cc2[nH]c1=O (centres unmarked) [Compound 356] | 0.1 | 0.126 |
| CCc1cc2ccc(C(C)(C#N)Cc3cccc(I)n3)cc2[nH]c1=O (centres unmarked) [Compound 214] | 0.3 | 0.0501 |
| CCc1cc2ccc(C(C)(C#N)Cc3nc(Cl)cc(N(C)C)n3)cc2[nH]c1=O (centres unmarked) [Compound 359] | 0.1 | 0.0794 |
| CCc1cc2ccc(C(C)(C#N)Cc3cccc(CO)n3)cc2[nH]c1=O (centres unmarked) [Compound 345] | 0.3 | 0.158 |
| CCc1cc2ccc(C(C)(C#N)Cc3ccc(C)nc3)cc2[nH]c1=O (centres unmarked) [Compound 327] | 3 | 0.1 |
| CCc1c(C)c2ccc(C(C)(C#N)Cc3cccc(C#N)c3)cc2[nH]c1=O (centres unmarked) [Compound 181] | 0.3 | 0.1 |
| CCc1cc2ccc([C@](C)(C#N)Cc3cccc(N(C)C)c3)cc2[nH]c1=O (single isomer, unassigned) [Compound 259] | 10 | 0.0794 |
| CCc1cc2ccc(C(C)(C#N)Cc3ccc4ccccc4n3)cc2[nH]c1=O (centres unmarked) [Compound 336] | 1 | 0.0794 |
| CCc1cc2ccc(C(C)(C#N)C(C)c3ccccc3)cc2[nH]c1=O (centres unmarked) [Compound 198] | 0.3 | 0.126 |
| CCc1cc2ccc([C@@](C)(C#N)Cc3cccc(N(C)C)c3)cc2[nH]c1=O (single isomer, unassigned) [Compound 258] | 0.1 | 0.0501 |
| CCc1cc2ccc(C(C)(C#N)Cc3ncc(C)c(OC)c3C)cc2[nH]c1=O (centres unmarked) [Compound 311] | 1 | 0.126 |
| Cc1cc2ccc([C@](C)(C#N)Cc3cccc(C#N)c3)cc2[nH]c1=O [Compound 36] | 0.1 | 1.58 |
| CCOC(=O)c1cccc(CC(C)(C#N)c2ccc3cc(CC)c(=O)[nH]c3c2)n1 (centres unmarked) [Compound 215] | 1 | 0.398 |
| CCc1cc2ccc(C(C)(C#N)Cc3nccc(OCCOC)n3)cc2[nH]c1=O (centres unmarked) [Compound 369] | 1 | 0.126 |
| CCc1cc2ccc(C(C)(C#N)Cc3cc(Cl)nc(Cl)c3)cc2[nH]c1=O (centres unmarked) [Compound 372] | 0.1 | 0.1 |
| CCc1cc2ccc(C(C)(C#N)Cc3cccc(C)n3)cc2[nH]c1=O (centres unmarked) [Compound 343] | 0.3 | 0.0794 |
| CCc1cc2ccc(C(C)(C#N)Cc3cccc(OC)n3)cc2[nH]c1=O (centres unmarked) [Compound 353] | 0.3 | 0.0794 |
| C#Cc1cccc(C[C@@](C)(C#N)c2ccc3cc(CC)c(=O)[nH]c3c2)c1 [Compound 3] | 0.01 | 0.0794 |
| CCc1cc2ccc([C@](C)(C#N)C[C@@H]3Cc4cc(C)ccc4O3)cc2[nH]c1=O (single isomer, unassigned) [Compound 400] | 10 | 0.398 |
| CCc1cc2ccc(C(C)(C#N)Cc3cccc(N(C)C)n3)cc2[nH]c1=O (centres unmarked) [Compound 213] | 0.3 | 0.0631 |
| CCc1cc2ccc(C(F)(C#N)Cc3ccccc3)cc2[nH]c1=O (centres unmarked) [Compound 187] | 3 | 0.0631 |
| CCc1cc2ccc(C(C)(C#N)Cc3cccc(Cl)n3)cc2[nH]c1=O (centres unmarked) [Compound 310] | 0.3 | 0.1 |
